From patent publication US20130123460A1, “PEPTIDE FOR IMPROVING BIOSTABILITY OF BIOACTIVE SUBSTANCE, AND BIOACTIVE SUBSTANCE HAVING IMPROVED BIOSTABILITY” (priority 2010, published 2013)
Like-named read-outs stand apart in the source and are kept apart here. Where no end group is shown, it is not given here.

Assays:
[1] = Plasma stability of GLP-1 peptide complex (remaining rate in rat plasma, HPLC/MS); type: in vitro ADME, SD rats; settings: for remaining at 8 h, 0.5 μmol/L / remaining at 48 h, 0.5 μmol/L: SD
From the text: SD rats were anesthetized with diethyl ether, whole blood was collected and a plasma fraction was separated therefrom.

[2] = target: T1, endogenous GLP-1 receptor (Mus musculus, UniProt O35659); experiment: Insulin secretion capacity of GLP-1 peptide complex in MIN 6 cells; type: cell-based; settings: for Insulin secretion capacity (% of control): MIN 6 cells, 1000 pM, 15 mM glucose, control = native GLP-1 at 1000 pM;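 as to all read-outs here: insulin released into the supernatant of MIN 6 cultures quantified by ELISA, absorbance read at 450 nm with 620 nm reference after substrate addition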
T1 construct: expressing an endogenous GLP-1 receptor; endogenous in cells; host or cells: MIN 6 mouse insulinoma cells (obtained from a person)
T1 sequence (O35659 22-463): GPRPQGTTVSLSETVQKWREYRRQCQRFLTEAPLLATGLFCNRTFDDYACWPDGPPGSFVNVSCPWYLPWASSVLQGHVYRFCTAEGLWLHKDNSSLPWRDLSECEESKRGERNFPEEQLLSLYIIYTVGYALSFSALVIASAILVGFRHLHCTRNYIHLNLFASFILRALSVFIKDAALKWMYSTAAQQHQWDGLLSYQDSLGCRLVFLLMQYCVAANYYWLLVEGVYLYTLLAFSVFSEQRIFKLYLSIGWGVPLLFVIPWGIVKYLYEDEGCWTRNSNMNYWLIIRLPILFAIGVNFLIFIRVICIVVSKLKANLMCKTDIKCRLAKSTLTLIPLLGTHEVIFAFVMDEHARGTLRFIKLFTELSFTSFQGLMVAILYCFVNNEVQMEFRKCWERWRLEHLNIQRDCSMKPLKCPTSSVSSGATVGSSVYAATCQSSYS
Method: MIN 6 was seeded on a multi-plate, which was cultivated at 37° C. for 48 hours. After that, the culture was washed twice with a KRH buffer solution including 2 mM glucose solution (including NaCl 119 mM, KCl 4.74 mM, CaCl2 2.54 mM, MgCl2 1.19 mM, KH2PO4 1.19 mM, 10 mM HEPES buffer solution pH7.3, and 0.1% BSA), and then it was incubated at 37° C. for one hour. […] A supernatant thereof was recovered, and an amount of insulin secreted was measured. The measurement of the insulin was performed in an enzyme-linked immunosorbent assay (ELISA), and an absorbance was measured at 450 nm (a sub-wavelength: 620 nm) after the addition of a substrate.
EC50 values thereof were calculated in the same manner as in Part 2, and the influence on the bioactivity caused by the addition of the partial peptide of the GA module were inspected in detail.
The analysis was performed using the following calculation formula.

Molecule	remaining at 8 h, 0.5 μmol/L ([1]; rat, plasma) [%]	remaining at 48 h, 0.5 μmol/L ([1]; rat, plasma) [%]	Insulin secretion capacity (% of control) [2] [%]	other results
CC[C@H](C)[C@H](NC(=O)[C@H](CCC(=O)O)NC(=O)[C@H](CC(=O)O)NC(=O)[C@@H](NC(=O)CNC(=O)[C@H](CCCCN)NC(=O)[C@@H](NC(=O)[C@H](CC(C)C)NC(=O)[C@H](Cc1c[nH]c2ccccc12)NC(=O)[C@H](C)NC(=O)[C@@H](NC(=O)[C@H](Cc1ccccc1)NC(=O)[C@H](CCC(=O)O)NC(=O)[C@H](CCCCN)NC(=O)[C@H](C)NC(=O)[C@H](C)NC(=O)[C@H](CCC(N)=O)NC(=O)CNC(=O)[C@H](CCC(=O)O)NC(=O)[C@H](CC(C)C)NC(=O)[C@H](Cc1ccc(O)cc1)NC(=O)[C@H](CO)NC(=O)[C@H](CO)NC(=O)[C@@H](NC(=O)[C@H](CC(=O)O)NC(=O)[C@H](CO)NC(=O)[C@@H](NC(=O)[C@H](Cc1ccccc1)NC(=O)[C@@H](NC(=O)CNC(=O)[C@H](CCC(=O)O)NC(=O)[C@H](C)NC(=O)[C@@H](N)Cc1c[nH]cn1)[C@@H](C)O)[C@@H](C)O)C(C)C)[C@@H](C)CC)C(C)C)[C@@H](C)CC)C(N)=O [Comparative Example 10, GLP-1(7-35)-GAm(38-41)-NH2, reference compound]	35	0	–	–
HAEGTFTSDVSSYLEGQAAKEFIAWLVKGGPVKALIDEILAA-NH2 [Example 22, GLP-1(7-35)-Gly-Pro-GAm(34-44)-NH2]	98	94	99	–
GLP-1(7-36)-NH2 [Comparative Example 1, reference compound]	–	–	100	–
HSEGTFTSDVSSYLEGQAAKEFIAWLVKGAKTVEGVKAL-NH2 [Comparative Example 8, [Ser8]-GLP-1(7-35)-GAm(28-37)-NH2, reference compound]	27	0	–	–
HSEGTFTSDVSSYLEEEAAKEFIAWLVKGGPSSGAPPPS-NH2 [Comparative Example 13, reference compound]	57	12	–	–
HSEGTFTSDVSSYLEGQAAKEFIAWLVKGAKTVEGVKALIDE-NH2 [Comparative Example 7, [Ser8]-GLP-1(7-35)-GAm(28-40)-NH2, reference compound]	81	4	–	–
CC[C@H](C)[C@H](NC(=O)[C@H](Cc1ccccc1)NC(=O)[C@H](CCC(=O)O)NC(=O)[C@H](CCCCN)NC(=O)[C@H](C)NC(=O)[C@H](C)NC(=O)[C@H](CCC(N)=O)NC(=O)CNC(=O)[C@H](CCC(=O)O)NC(=O)[C@H](CC(C)C)NC(=O)[C@H](Cc1ccc(O)cc1)NC(=O)[C@H](CO)NC(=O)[C@H](CO)NC(=O)[C@@H](NC(=O)[C@H](CC(=O)O)NC(=O)[C@H](CO)NC(=O)[C@@H](NC(=O)[C@H](Cc1ccccc1)NC(=O)[C@@H](NC(=O)CNC(=O)[C@H](CCC(=O)O)NC(=O)CNC(=O)[C@@H](N)Cc1c[nH]cn1)[C@@H](C)O)[C@@H](C)O)C(C)C)C(=O)N[C@@H](C)C(=O)N[C@@H](Cc1c[nH]c2ccccc12)C(=O)N[C@@H](CC(C)C)C(=O)N[C@H](C(=O)N[C@@H](CCCCN)C(=O)NCC(=O)N[C@@H](CCCNC(=N)N)C(=O)N1CCC[C@H]1C(=O)N[C@@H](CO)C(=O)N[C@@H](CO)C(N)=O)C(C)C [Comparative Example 12, [Gly8]-GLP-1(7-35)-RPSS-NH2, reference compound]	–	–	–	remaining at 8 h, 0.5 μmol/L ([1]; rat plasma, 0.5 μmol/L, 37° C., 8 hours, relative to 0 hour = 100%, read-out: Remaining rate in plasma after 8 hours (%)): 34%; remaining at 48 h, 0.5 μmol/L ([1]; rat plasma, 0.5 μmol/L, 37° C., 48 hours, relative to 0 hour = 100%, read-out: Remaining rate in plasma after 48 hours (%)): 0%; Remaining rate in plasma after 48 hours (%) ([1]; rat plasma, 0.5 μmol/L, 37° C., 48 hours, relative to 0 hour = 100%): 0%
[Ser8]-GLP-1(7-35)-GAm(28-44)-NH2 [Example 14]	–	–	105	Insulin secretion capacity (activity) compared with native GLP-1, in words ([2]; MIN 6 cells, 30, 100, 300 or 1000 pM (FIG. 2, FIG. 3)): almost the same activity as that of the native GLP-1

Continued, in another order:

remaining at 8 h, 0.5 μmol/L ([1]; rat, plasma) [%]	remaining at 48 h, 0.5 μmol/L ([1]; rat, plasma) [%]	Insulin secretion capacity (% of control) [2] [%]	Molecule	other results
80	93	–	HSEGTFTSDVSSYLEGQAAKEFIAWLVKGKNLINNAKTVEGVKALIDEILAALP-NH2 [Example 17, [Ser8]-GLP-1(7-35)-GAm(22-46)-NH2]	–
105	116	85	HSEGTFTSDVSSYLEGQAAKEFIAWLVKGTVEGVKALIDEIL-NH2 [Example 12, [Ser8]-GLP-1(7-35)-GAm(30-42)-NH2]	–
–	84	45	HSEGTFTSDVSSYLEGQAAKEFIAWLVKGYKNLINNAKTVEGVKALIDEILAALP-NH2 [Comparative Example 6, [Ser8]-GLP-1(7-35)-GAm(21-46)-NH2, reference compound]	–
90	40	123	HAEGTFTSDVSSYLEGQAAKEFIAWLVKGGPSGVKALIDEILAA-NH2 [Example 24, GLP-1(7-35)-Gly-Pro-Ser-GAm(33-44)-NH2]	–
–	–	120	[Ser8]-GLP-1(7-35)-GAm(38-44)-NH2 [Example 2]	–
0	0	–	CC[C@H](C)[C@H](NC(=O)CNC(=O)[C@H](CCCCN)NC(=O)[C@@H](NC(=O)[C@H](CC(C)C)NC(=O)[C@H](Cc1c[nH]c2ccccc12)NC(=O)[C@H](C)NC(=O)[C@@H](NC(=O)[C@H](Cc1ccccc1)NC(=O)[C@H](CCC(=O)O)NC(=O)[C@H](CCCCN)NC(=O)[C@H](C)NC(=O)[C@H](C)NC(=O)[C@H](CCC(N)=O)NC(=O)CNC(=O)[C@H](CCC(=O)O)NC(=O)[C@H](CC(C)C)NC(=O)[C@H](Cc1ccc(O)cc1)NC(=O)[C@H](CO)NC(=O)[C@H](CO)NC(=O)[C@@H](NC(=O)[C@H](CC(=O)O)NC(=O)[C@H](CO)NC(=O)[C@@H](NC(=O)[C@H](Cc1ccccc1)NC(=O)[C@@H](NC(=O)CNC(=O)[C@H](CCC(=O)O)NC(=O)[C@H](C)NC(=O)[C@@H](N)Cc1c[nH]cn1)[C@@H](C)O)[C@@H](C)O)C(C)C)[C@@H](C)CC)C(C)C)C(=O)N[C@@H](CC(=O)O)C(=O)N[C@@H](CCC(=O)O)C(N)=O [Comparative Example 11, GLP-1(7-35)-GAm(38-40)-NH2, reference compound]	–
–	–	109	[Ser8]-GLP-1(7-35)-GAm(32-44)-NH2 [Example 10]	–
–	–	125	[Ser8]-GLP-1(7-35)-GAm(38-42)-NH2 [Example 1]	–
63	0	–	CC[C@H](C)[C@H](NC(=O)[C@H](Cc1ccccc1)NC(=O)[C@H](CCC(=O)O)NC(=O)[C@H](CCCCN)NC(=O)[C@H](C)NC(=O)[C@H](C)NC(=O)[C@H](CCC(N)=O)NC(=O)CNC(=O)[C@H](CCC(=O)O)NC(=O)[C@H](CC(C)C)NC(=O)[C@H](Cc1ccc(O)cc1)NC(=O)[C@H](CO)NC(=O)[C@H](CO)NC(=O)[C@@H](NC(=O)[C@H](CC(=O)O)NC(=O)[C@H](CO)NC(=O)[C@@H](NC(=O)[C@H](Cc1ccccc1)NC(=O)[C@@H](NC(=O)CNC(=O)[C@H](CCC(=O)O)NC(=O)[C@H](CO)NC(=O)[C@@H](N)Cc1c[nH]cn1)[C@@H](C)O)[C@@H](C)O)C(C)C)C(=O)N[C@@H](C)C(=O)N[C@@H](Cc1c[nH]c2ccccc12)C(=O)N[C@@H](CC(C)C)C(=O)N[C@H](C(=O)N[C@@H](CCCCN)C(=O)NCC(=O)N[C@@H](CC(=O)O)C(=O)N[C@@H](CCC(=O)O)C(=O)N[C@H](C(=O)N[C@@H](CC(C)C)C(=O)N[C@@H](C)C(=O)N[C@@H](C)C(N)=O)[C@@H](C)CC)C(C)C [Comparative Example 9, [Ser8]-GLP-1(7-35)-GAm(39-44)-NH2, reference compound]	–
